According to US20260325533A1, “CDK INHIBITOR COMPOUNDS” (ALEKSIA THERAPEUTICS, INC., priority 2023, published 2026):
Where two headings read alike, the source gives them in different places.

Tests used:
CDK2/CCNE1 = CDK2/CCNE1 (Homo sapiens, UniProt P24941); assay: CDK2 homogeneous time-resolved fluorescence (HTRF) kinase assay; format: biochemical; details: CDK2/CCNE
Summary of the method: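 IC50 derived from 11-point, half-log dilutions (usually top 10 μM) of compound, 1% DMSO. Kinase (3 nM CDK2/CCNE1) was preincubated with compound 20 min, then phosphorylated 50 nM ULight-4E-BP1 peptide at 1 mM ATP for 60 min, 23 °C. Europium-antibody TR-FRET read after EDTA stop.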

CDK1/CCNB1 = CDK1/CCNB1 (Homo sapiens, UniProt P06493); assay: CDK1 homogeneous time-resolved fluorescence (HTRF) kinase assay; format: biochemical; details: CDK1/CCNB
Chain of CDK1/CCNB1 (P06493 whole entry): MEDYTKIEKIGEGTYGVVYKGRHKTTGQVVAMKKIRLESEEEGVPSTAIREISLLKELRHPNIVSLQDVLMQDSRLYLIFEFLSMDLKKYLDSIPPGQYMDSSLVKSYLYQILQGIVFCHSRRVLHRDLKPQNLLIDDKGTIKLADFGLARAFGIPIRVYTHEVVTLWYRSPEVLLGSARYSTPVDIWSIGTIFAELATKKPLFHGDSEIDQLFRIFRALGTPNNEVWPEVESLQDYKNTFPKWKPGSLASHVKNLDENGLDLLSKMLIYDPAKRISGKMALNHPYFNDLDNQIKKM
Chain of CDK1/CCNB1 (P14635 whole entry partner): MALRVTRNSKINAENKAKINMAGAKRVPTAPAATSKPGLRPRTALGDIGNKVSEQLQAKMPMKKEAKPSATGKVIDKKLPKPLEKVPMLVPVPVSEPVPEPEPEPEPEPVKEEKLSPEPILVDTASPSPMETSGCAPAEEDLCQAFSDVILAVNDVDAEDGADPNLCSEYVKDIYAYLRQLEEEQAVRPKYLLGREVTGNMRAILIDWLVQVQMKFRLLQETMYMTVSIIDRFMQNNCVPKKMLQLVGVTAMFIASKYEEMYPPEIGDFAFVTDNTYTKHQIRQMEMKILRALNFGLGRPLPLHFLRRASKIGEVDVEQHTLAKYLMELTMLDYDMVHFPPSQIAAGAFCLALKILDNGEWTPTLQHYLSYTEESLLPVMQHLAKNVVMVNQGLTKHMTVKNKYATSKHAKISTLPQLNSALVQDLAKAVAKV
Summary of the method: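 Read-out: TR-FRET (Eu anti-phospho-4E-BP1 Thr37/46 antibody, 2 nM; 665 nm or 665/615 ratio) after 60 min phosphorylation of 50 nM ULight-peptide by 0.5 nM CDK1/CCNB1 at 1 mM ATP, 23 °C. Compound preincubated 20 min with enzyme; 1% DMSO.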

[1] = 25-250 nM marked x, read-out: CDK2/CCNE IC50 25-250 nM
[2] = >250 nM marked x, read-out: CDK1/CCNB IC50 >250 nM
[3] = >250 nM marked x, read-out: CDK2/CCNE IC50 >250 nM

`CN1CCC(c2nccc3cnc(Nc4ccc(S(C)(=O)=O)cc4)cc23)CC1` [Ex 151, 5-(1-methylpiperidin-4-yl)-N-(4-(methylsulfonyl)phenyl)-2,6-naphthyridin-3-amine] was tested, and the IC50 (CDK2/CCNE1; [1]) was 25 to 250 nM and the IC50 (CDK1/CCNB1; [2]) was > 250 nM.
With `CCN1CCC(c2nccc3cnc(Nc4ccc(S(C)(=O)=O)cc4)cc23)CC1` [Ex 152, 5-(1-ethylpiperidin-4-yl)-N-(4-(methylsulfonyl)phenyl)-2,6-naphthyridin-3-amine] the IC50 (CDK2/CCNE1; [1]) was 25 to 250 nM and the IC50 (CDK1/CCNB1; [2]) was > 250 nM.
`CS(=O)(=O)c1ccc(Nc2cc3c(C4CCN(CC5CCCCC5)CC4)nccc3cn2)cc1` [Ex 153, 5-(1-(cyclohexylmethyl)piperidin-4-yl)-N-(4-(methylsulfonyl)phenyl)-2,6-naphthyridin-3-amine] was tested, and the IC50 (CDK2/CCNE1; [3]) was > 250 nM and the IC50 (CDK1/CCNB1; [2]) was > 250 nM.
`CC(=O)N1CCC(c2nccc3cnc(Nc4ccc(S(C)(=O)=O)cc4)cc23)CC1` [Ex 154, 1-(4-(7-((4-(methylsulfonyl)phenyl)amino)-2,6-naphthyridin-1-yl)piperidin-1-yl)ethan-1-one] was tested, and the IC50 (CDK2/CCNE1; [3]) was > 250 nM and the IC50 (CDK1/CCNB1; [2]) was > 250 nM.
For `C=CC(=O)N1CCC(c2nccc3cnc(Nc4ccc(S(C)(=O)=O)cc4)cc23)CC1` [Ex 155, 1-(4-(7-((4-(methylsulfonyl)phenyl)amino)-2,6-naphthyridin-1-yl)piperidin-1-yl)prop-2-en-1-one], the IC50 (CDK2/CCNE1; [3]) was > 250 nM and the IC50 (CDK1/CCNB1; [2]) was > 250 nM.
In the case of `C=CS(=O)(=O)c1ccc(Nc2cc3c(-c4ccc(O)cc4)nccc3cn2)cc1` [Ex 157, 4-(7-((4-(vinylsulfonyl)phenyl)amino)-2,6-naphthyridin-1-yl)phenol], the IC50 (CDK2/CCNE1; [1]) is reported as 25 to 250 nM and the IC50 (CDK1/CCNB1; [2]) is reported as > 250 nM.
`Cc1cc2nn(C)cc2cc1-c1nccc2cnc(NC3CCN(S(C)(=O)=O)CC3)cc12` [Ex 159, 5-(2,6-dimethyl-2H-indazol-5-yl)-N-(1-(methylsulfonyl)piperidin-4-yl)-2,6-naphthyridin-3-amine] was tested, and the IC50 (CDK2/CCNE1; [1]) was 25 to 250 nM and the IC50 (CDK1/CCNB1; [2]) was > 250 nM.
With `C=CS(=O)(=O)c1ccc(Nc2cc3c(-c4cccc(C(F)(F)F)c4)nccc3cn2)cc1` [Ex 160, 5-(3-(trifluoromethyl)phenyl)-N-(4-(vinylsulfonyl)phenyl)-2,6-naphthyridin-3-amine] the IC50 (CDK2/CCNE1; [1]) was 25 to 250 nM and the IC50 (CDK1/CCNB1; [2]) was > 250 nM.
`C=CS(=O)(=O)c1ccc(Nc2cc3c(-c4cccc(OC(F)(F)F)c4)nccc3cn2)cc1` [Ex 161, 5-(3-(trifluoromethoxy)phenyl)-N-(4-(vinylsulfonyl)phenyl)-2,6-naphthyridin-3-amine] was tested, and the IC50 (CDK2/CCNE1; [3]) was > 250 nM and the IC50 (CDK1/CCNB1; [2]) was > 250 nM.
`CS(=O)(=O)c1ccc(Nc2cc3c(-c4ccc5c(c4)C4(CC4)C(=O)N5)nccc3cn2)cc1` [Ex 163, 5'-(7-((4-(methylsulfonyl)phenyl)amino)-2,6-naphthyridin-1-yl)spiro[cyclopropane-1,3'-indolin]-2'-one] was tested, and the IC50 (CDK2/CCNE1; [1]) was 25 to 250 nM and the IC50 (CDK1/CCNB1; [2]) was > 250 nM.
For `Cc1c(-c2nccc3cnc(Nc4ccc(S(C)(=O)=O)cc4)cc23)ccc2c1cnn2C1CCOCC1` [Ex 164, 5-(4-methyl-1-(tetrahydro-2H-pyran-4-yl)-1H-indazol-5-yl)-N-(4-(methylsulfonyl)phenyl)-2,6-naphthyridin-3-amine], the IC50 (CDK2/CCNE1; [1]) was 25 to 250 nM and the IC50 (CDK1/CCNB1; [2]) was > 250 nM.
For `Cc1c(-c2nccc3cnc(Nc4ccc(S(C)(=O)=O)cc4)cc23)ccc2nn(C3CCOCC3)cc12` [Ex 165, 5-(4-methyl-2-(tetrahydro-2H-pyran-4-yl)-2H-indazol-5-yl)-N-(4-(methylsulfonyl)phenyl)-2,6-naphthyridin-3-amine], the IC50 (CDK2/CCNE1; [1]) was 25 to 250 nM and the IC50 (CDK1/CCNB1; [2]) was > 250 nM.
For `CS(=O)(=O)c1ccc(Nc2cc3c(C#C[C@H]4CC[C@H](C(N)=O)CC4)nccc3cn2)cc1` [Ex 168, (1r,4r)-4-((7-((4-(methylsulfonyl)phenyl)amino)-2,6-naphthyridin-1-yl)ethynyl)cyclohexane-1-carboxamide], the IC50 (CDK2/CCNE1; <25 nM, read-out: CDK2/CCNE IC50 <25 nM) was < 25 nM and the IC50 (CDK1/CCNB1; 25-250 nM marked x, read-out: CDK1/CCNB IC50 25-250 nM) was 25 to 250 nM.
For `CC(C)N1CCC(c2nccc3cnc(Nc4ccc(S(C)(=O)=O)cc4)cc23)CC1` [Ex 170, 5-(1-isopropylpiperidin-4-yl)-N-(4-(methylsulfonyl)phenyl)-2,6-naphthyridin-3-amine], the IC50 (CDK2/CCNE1; [3]) was > 250 nM and the IC50 (CDK1/CCNB1; [2]) was > 250 nM.
With `C=CCN1CCC(c2nccc3cnc(Nc4ccc(S(C)(=O)=O)cc4)cc23)CC1` [Ex 171, 5-(1-allylpiperidin-4-yl)-N-(4-(methylsulfonyl)phenyl)-2,6-naphthyridin-3-amine] the IC50 (CDK2/CCNE1; [3]) was > 250 nM and the IC50 (CDK1/CCNB1; [2]) was > 250 nM.
`CS(=O)(=O)c1ccc(Nc2cc3c(C4CCN(Cc5ccccc5)CC4)nccc3cn2)cc1` [Ex 172, 5-(1-benzylpiperidin-4-yl)-N-(4-(methylsulfonyl)phenyl)-2,6-naphthyridin-3-amine] was tested, and the IC50 (CDK2/CCNE1; [3]) was > 250 nM and the IC50 (CDK1/CCNB1; [2]) was > 250 nM.
`COc1ccc(CN2CCC(c3nccc4cnc(Nc5ccc(S(C)(=O)=O)cc5)cc34)CC2)cc1` [Ex 173, 5-(1-(4-methoxybenzyl)piperidin-4-yl)-N-(4-(methylsulfonyl)phenyl)-2,6-naphthyridin-3-amine] was tested, and the IC50 (CDK2/CCNE1; [3]) was > 250 nM and the IC50 (CDK1/CCNB1; [2]) was > 250 nM.
`CS(=O)(=O)c1ccc(Nc2cc3c(C4CCN(Cc5cccnc5)CC4)nccc3cn2)cc1` [Ex 174, N-(4-(methylsulfonyl)phenyl)-5-(1-(pyridin-3-ylmethyl)piperidin-4-yl)-2,6-naphthyridin-3-amine] was tested, and the IC50 (CDK2/CCNE1; [3]) was > 250 nM and the IC50 (CDK1/CCNB1; [2]) was > 250 nM.
`CS(=O)(=O)c1ccc(Nc2cc3c(C4CCN(S(C)(=O)=O)CC4)nccc3cn2)cc1` [Ex 175, N-(4-(methylsulfonyl)phenyl)-5-(1-(methylsulfonyl)piperidin-4-yl)-2,6-naphthyridin-3-amine] was tested, and the IC50 (CDK2/CCNE1; [3]) was > 250 nM and the IC50 (CDK1/CCNB1; [2]) was > 250 nM.
For `CC(C)S(=O)(=O)N1CCC(c2nccc3cnc(Nc4ccc(S(C)(=O)=O)cc4)cc23)CC1` [Ex 176, 5-(1-(isopropylsulfonyl)piperidin-4-yl)-N-(4-(methylsulfonyl)phenyl)-2,6-naphthyridin-3-amine], the IC50 (CDK2/CCNE1; [3]) was > 250 nM and the IC50 (CDK1/CCNB1; [2]) was > 250 nM.
For `CNC(=O)N1CCC(c2nccc3cnc(Nc4ccc(S(C)(=O)=O)cc4)cc23)CC1` [Ex 177, N-methyl-4-(7-((4-(methylsulfonyl)phenyl)amino)-2,6-naphthyridin-1-yl)piperidine-1-carboxamide], the IC50 (CDK2/CCNE1; [3]) was > 250 nM and the IC50 (CDK1/CCNB1; [2]) was > 250 nM.
With `CNC(=O)[C@H]1CC[C@H](c2nccc3cnc(Nc4ccc(S(C)(=O)=O)cc4)cc32)CC1` [Ex 178, (1r,4r)-N-methyl-4-(7-((4-(methylsulfonyl)phenyl)amino)-2,6-naphthyridin-1-yl)cyclohexane-1-carboxamide] the IC50 (CDK2/CCNE1; [1]) was 25 to 250 nM and the IC50 (CDK1/CCNB1; [2]) was > 250 nM.
`CCNC(=O)[C@H]1CC[C@H](c2nccc3cnc(Nc4ccc(S(C)(=O)=O)cc4)cc32)CC1` [Ex 179, (1r,4r)-N-ethyl-4-(7-((4-(methylsulfonyl)phenyl)amino)-2,6-naphthyridin-1-yl)cyclohexane-1-carboxamide] was tested, and the IC50 (CDK2/CCNE1; [1]) was 25 to 250 nM and the IC50 (CDK1/CCNB1; [2]) was > 250 nM.
With `CCCNC(=O)[C@H]1CC[C@H](c2nccc3cnc(Nc4ccc(S(C)(=O)=O)cc4)cc32)CC1` [Ex 180, (1r,4r)-4-(7-((4-(methylsulfonyl)phenyl)amino)-2,6-naphthyridin-1-yl)-N-propylcyclohexane-1-carboxamide] the IC50 (CDK2/CCNE1; [1]) was 25 to 250 nM and the IC50 (CDK1/CCNB1; [2]) was > 250 nM.
With `CC(C)NC(=O)[C@H]1CC[C@H](c2nccc3cnc(Nc4ccc(S(C)(=O)=O)cc4)cc32)CC1` [Ex 181, (1r,4r)-N-isopropyl-4-(7-((4-(methylsulfonyl)phenyl)amino)-2,6-naphthyridin-1-yl)cyclohexane-1-carboxamide] the IC50 (CDK2/CCNE1; [3]) was > 250 nM and the IC50 (CDK1/CCNB1; [2]) was > 250 nM.
For `Cc1c(-c2nccc3cnc(Nc4ccc(S(C)(=O)=O)cc4)cc23)ccc2c1cnn2C1CCNCC1` [Ex 182, 5-(4-methyl-1-(piperidin-4-yl)-1H-indazol-5-yl)-N-(4-(methylsulfonyl)phenyl)-2,6-naphthyridin-3-amine], the IC50 (CDK2/CCNE1; [1]) was 25 to 250 nM and the IC50 (CDK1/CCNB1; [2]) was > 250 nM.
`CS(=O)(=O)c1ccc(Nc2cc3c(N4CCCCC4)nc(C=O)cc3cn2)cc1` [Ex 186, 7-((4-(methylsulfonyl)phenyl)amino)-1-(piperidin-1-yl)-2,6-naphthyridine-3-carbaldehyde] was tested, and the IC50 (CDK2/CCNE1; [1]) was 25 to 250 nM and the IC50 (CDK1/CCNB1; [2]) was > 250 nM.
In the case of `C=CS(=O)(=O)c1ccc(Nc2cc3c(N4CC(C#N)C4)nccc3cn2)cc1` [Ex 188, 1-(7-((4-(vinylsulfonyl)phenyl)amino)-2,6-naphthyridin-1-yl)azetidine-3-carbonitrile], the IC50 (CDK2/CCNE1; [1]) is reported as 25 to 250 nM and the IC50 (CDK1/CCNB1; [2]) is reported as > 250 nM.
For `Cc1c(-c2nccc3cnc(Nc4ccc(S(C)(=O)=O)cc4)cc23)ccc2c1cnn2CCC#N` [Ex 194, 3-(4-methyl-5-(7-((4-(methylsulfonyl)phenyl)amino)-2,6-naphthyridin-1-yl)-1H-indazol-1-yl)propanenitrile], the IC50 (CDK2/CCNE1; [1]) was 25 to 250 nM and the IC50 (CDK1/CCNB1; [2]) was > 250 nM.
With `Cc1c(-c2nccc3cnc(Nc4ccc(S(C)(=O)=O)cc4)cc23)ccc2nn(CC3CNC3)cc12` [Ex 196, 5-(2-(azetidin-3-ylmethyl)-4-methyl-2H-indazol-5-yl)-N-(4-(methylsulfonyl)phenyl)-2,6-naphthyridin-3-amine] the IC50 (CDK2/CCNE1; [1]) was 25 to 250 nM and the IC50 (CDK1/CCNB1; [2]) was > 250 nM.
For `Cc1c(-c2nccc3cnc(Nc4ccc(S(C)(=O)=O)cc4)cc23)ccc2nn(CCC#N)cc12` [Ex 197, 3-(4-methyl-5-(7-((4-(methylsulfonyl)phenyl)amino)-2,6-naphthyridin-1-yl)-2H-indazol-2-yl)propanenitrile], the IC50 (CDK2/CCNE1; [1]) was 25 to 250 nM and the IC50 (CDK1/CCNB1; [2]) was > 250 nM.
